Measured values as given in patent US20070065472A1, “Benzyl-1,3-thiazolidine-2,4-dione compounds for stimulating or inducing the growth and/or for reducing the loss of keratin fibers” (L'OREAL, priority 2005, published 2007).

melting point: 84 to 85 °C
Structure (SMILES): O=C1NC(=O)C(Cc2ccccc2Oc2ccccc2)S1 (stereo not shown) [Example 1, 5-(2-phenoxybenzyl)-1,3-thiazolidine-2,4-dione]
